What all share (assay type): cell-based
In experiment [1] the test system is neuron prepared from hippocampus of a rat embryo. As to the kind of experiment: IP3 kinetics in neuron expressing the probe on glutamate stimulation. The note with it: 20 μM glutamate stimulation, cell body and dendrites, FIG. 3. The source says: The probe was expressed in a neuron prepared from hippocampus of a rat embryo, and IP3 kinetics in the neuron was observed.

Experiment [2] relates to purine receptor of the MDCK cell. As to the kind of experiment: ATP-dependent IP3 generation in MDCK cells visualized with the probe. The procedure: FIG. 2 is visualization of ATP-dependent IP3 generation in MDCK cells using the probe of this invention. (a), 100 μM ATP; (b), […]; and (c), 1 μM ATP.
(§1) cDNA encoding a probe for IP3 detection and quantification (FIG. 1) was prepared by a genetic engineering method, and introduced into MDCK cell. Expression of the probe in the cytoplasm was confirmed since fluorescence was observed from the cells with a fluorescence microscope.
An increase in fluorescence intensity ratio (CFP/YFP) was observed by stimulating a purine receptor of the MDCK cell as obtained in Example 1 with 100 μM ATP (FIG. 2a).

In experiment [3] the test system is MDCK cell nucleus. As to the kind of experiment: IP3 generation in the MDCK cell nucleus with nuclear-localized probe. The note with it: 100 μM ATP stimulation, probe with nuclear localization sequence in nucleus, FIG. 4. The source says: The probe was linked with the nuclear localization sequence of SEQ ID NO: 4 at the C terminal thereof, and expressed in MDCK cell.

Experiment [4] deals with T1, probe for IP3 detection and quantification expressed in MDCK cell (Homo sapiens, UniProt Q14643).
T1 construct: a region from 224th amino acid to 579th amino acid of the type 1 IP3 receptor; expressed in transfected cells; host or cells: MDCK cells
As to the kind of experiment: IP3 microinjection into MDCK cell expressing the FRET probe. The note with it: each introduction of a small amount of IP3 by microinjection. The procedure:
as §1
Into the MDCK cell expressing the probe as obtained in Example 1, IP3 was introduced by a microinjection method.

T1 sequence (Q14643 224-579): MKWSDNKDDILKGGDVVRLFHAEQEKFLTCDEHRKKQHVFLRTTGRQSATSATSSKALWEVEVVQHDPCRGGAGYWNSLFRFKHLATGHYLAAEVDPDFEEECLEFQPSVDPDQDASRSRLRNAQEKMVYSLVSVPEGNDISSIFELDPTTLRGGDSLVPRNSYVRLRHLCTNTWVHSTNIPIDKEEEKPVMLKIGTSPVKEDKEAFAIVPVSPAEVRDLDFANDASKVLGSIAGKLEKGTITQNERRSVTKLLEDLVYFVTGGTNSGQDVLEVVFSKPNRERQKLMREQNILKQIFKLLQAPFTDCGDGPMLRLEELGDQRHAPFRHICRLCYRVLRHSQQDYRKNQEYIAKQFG

Consider `N[C@@H](CCC(=O)O)C(=O)O` [glutamate], for which the IP3 concentration result in experiment [1] was “temporally increased in not only the cell body but also the dendrites”.
Regarding `Nc1ncnc2c1ncn2[C@@H]1O[C@H](COP(=O)(O)OP(=O)(O)OP(=O)(O)O)[C@@H](O)[C@H]1O` [ATP], the “response of the probe” value is “a response of the probe was also observed depend on ATP concentration” in experiment [2] (1 μM ATP stimulation, FIG. 2c) and “a response of the probe was also observed depend on ATP concentration” in experiment [2] (10 μM ATP stimulation, FIG. 2b). Also, the “fluorescence intensity ratio (CFP/YFP)” value in experiment [2] (100 μM ATP stimulation, FIG. 2a) is on record as “increase”. Further, the IP3 concentration result in experiment [3] was “temporally increased”.
Turning to `O=P(O)(O)O[C@@H]1[C@H](O)[C@H](O)[C@@H](OP(=O)(O)O)[C@H](OP(=O)(O)O)[C@H]1O` [IP3, Inositol-1,4,5-trisphosphate], in experiment [4], the “CFP/YFP fluorescence intensity ratio” value is “stepwise increased and saturated soon”.
